Measured values from patent US7122666B2, “Heteroaryl-substituted pyrrole derivatives, their preparation and their therapeutic uses” (Sankyo Company, Limited, priority 1999, dated 2006).

What was measured:
[1] = test system: TNFα production in human whole blood; experiment: Inhibition of the production of TNFα in vitro in human whole blood (Test Examples 1 and 1′); assay type: cell-based; conditions: Table 7′, lipopolysaccharide 10 μg/ml, 6 hours at 37° C., plasma TNFα by ELISA, least squares, read-out: Inhibitory Effect on TNFα Production (in vitro) IC50
Experimental: (§1) Inhibition of the Production of the Cytokines IL-1β and TNFα in Vitro in Human Whole Blood
(§2) This test was performed according to the method of Hartman, et al. [D. A. Hartman, S. J. Ochalski and R. P. Carlson; The effects of anti-inflammatory and antiallergic drugs on cytokine release after stimulation of human whole blood by lipopolysaccharide and zymosan A: Inflamm. Res., 44, 269 (1995)].
(§3) Peripheral blood samples were collected in the presence of heparin from healthy adult volunteers. 1000 μl of whole blood were added to an Eppendorf tube to which 2 μl of a dimethyl sulfoxide solution of the test compound had been added in advance, after which 10 μl of lipopolysaccharide (E. coli 026: B6 origin, Difco) were added as a stimulant (final concentration of said lipopolysaccharide: 10 μg/ml). This was mixed well and then incubated for 6 hours at 37° C. in the presence of 5% CO2. At the end of the incubation, the mixture was cooled to 4° C. to stop the reaction, followed immediately by centrifuging for 5 minutes at 14,000 rpm to separate and collect the supernatant plasma. The IL-1β and TNFα produced and released into the plasma were measured using a commercially available enzyme immunoassay (ELISA) kit [Cayman (IL-1β) and Genzyme (TNFα)]. The procedure was also repeated in the absence of test compound. The inhibitory effect [IC50 (μM)] on the production of IL-1β and TNFα was determined from the amounts of the cytokines produced in the presence and absence of the test compound.
(§4) Inhibition of the Production of the Cytokines IL-1β and TNFα In Vitro in Human Whole Blood
as §3, with “O26:” for “026:”, “plasma” for “plasma.”, “kits” for “kit”, “determined by the method of least squares” for “determined”

[2] = test system: adjuvant-induced arthritis; experiment: Activity in preventing the development of adjuvant-induced arthritis in vivo (Test Examples 4 and 4′); conditions: Table 10′; Lewis rat, oral once a day from day 0 to day 20, inhibition of swelling of injected foot on day 21
Experimental: The test was performed according to the method described by Winder et al. (Arthritis Rheum., 12, 472–482, 1969). Heat-killed dried Mycobacterium butyricum (Difco Laboratories, Lot 679123) was ground on an agate mortar, and was then suspended in dry-sterilised liquid paraffin (first grade, Wako Pure Chemical Industries, Ltd.) to make a 2 ml suspension. The resulting suspension was then sonicated and used as an adjuvant. Arthritis was induced by the intradermal injection of the adjuvant (100 μg of heat killed dried bacterium/0.05 ml of paraffin/paw) into the heel of the right hind paw of a Lewis rat (male, age 8 weeks, Japan Charles River). […] The volumes of the swollen feet (adjuvant-injected right hind foot volume—non-injected left hind foot volume) were calculated. The percent inhibition of swelling of the injected foot of the treated animals as compared to that of the control animals on day 21 was calculated as follows. […] ID50 values were calculated using this curve. […] […]

[3] = test system: IL-1β production in human whole blood; experiment: Inhibition of the production of IL-1β in vitro in human whole blood (Test Examples 1 and 1′); assay type: cell-based; conditions: Table 8′, lipopolysaccharide 10 μg/ml, 6 hours at 37° C., plasma IL-1β by ELISA, least squares, read-out: Inhibitory Effect on IL-1β Production (in vitro) IC50
Experimental: as §1, §2, §3, §4
as §3, with “O26:” for “026:”, “plasma” for “plasma.”, “kits” for “kit”, “determined by the method of least squares” for “determined”

SMILES: Fc1ccc(-c2[nH]cc(C3=C[C@@H]4C[C@H](c5ccccc5)CN4CC3)c2-c2ccncc2)cc1 [Example 12′, 2-(4-Fluorophenyl)-4-[(2R,8aS)-2-phenyl-1,2,3,5,6,8a-hexahydroindolizin-7-yl]-3-(pyridin-4-yl)-1H-pyrrole]
- IC50 [1]: 2.5 nM
- Activity in Preventing the Development of Adjuvant-Induced Arthritis in vivo IC50 [2]: 2.1 mg/kg
- IC50 [3]: 2.6 nM
